Laboratory results published in ChEMBL document CHEMBL4507305, “Data for DCP probe TP-024” (2021).

Assays:
[1] = biological target: Ephrin type-B receptor 6 (Homo sapiens) (UniProt O15197); settings: Compound concentration 1000.0 nM
[2] = biological target: Mu-type opioid receptor (Homo sapiens) (UniProt P35372); settings: Compound concentration 10.0 uM
[3] = system: Phosphatidylinositol 4,5-bisphosphate 3-kinase catalytic subunit alpha isoform (Homo sapiens), P42336 [H1047L]; settings: Compound concentration 1000.0 nM
[4] = system: Receptor-type tyrosine-protein kinase FLT3 (Homo sapiens), P36888 [N841I]; settings: Compound concentration 1000.0 nM
[5] = biological target: Beta-2 adrenergic receptor (Homo sapiens) (UniProt P07550); settings: Compound concentration 10.0 uM
[6] = biological target: Bone morphogenetic protein receptor type-1B (Homo sapiens) (UniProt O00238); settings: Compound concentration 1000.0 nM
[7] = biological target: Dual specificity mitogen-activated protein kinase kinase 6 (Homo sapiens) (UniProt P52564); settings: Compound concentration 1000.0 nM
[8] = biological target: Serine/threonine-protein kinase 32B (Homo sapiens) (UniProt Q9NY57); settings: Compound concentration 1000.0 nM
Serine/threonine-protein kinase 32B (Homo sapiens), sequence (Q9NY57 whole entry, canonical isoform): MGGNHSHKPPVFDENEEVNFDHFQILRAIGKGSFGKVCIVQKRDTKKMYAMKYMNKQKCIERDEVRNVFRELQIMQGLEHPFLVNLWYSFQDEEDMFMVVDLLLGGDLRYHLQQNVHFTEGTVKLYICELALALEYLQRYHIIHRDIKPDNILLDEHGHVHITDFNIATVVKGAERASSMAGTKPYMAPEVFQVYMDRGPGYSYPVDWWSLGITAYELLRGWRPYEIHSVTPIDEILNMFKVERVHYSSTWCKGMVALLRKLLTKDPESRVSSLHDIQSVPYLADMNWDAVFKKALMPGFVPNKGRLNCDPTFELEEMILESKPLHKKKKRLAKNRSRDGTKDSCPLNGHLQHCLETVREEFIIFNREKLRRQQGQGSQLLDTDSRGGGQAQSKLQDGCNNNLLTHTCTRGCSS

[9] = biological target: Casein kinase I isoform gamma-3 (Homo sapiens) (UniProt Q9Y6M4); settings: Compound concentration 1000.0 nM
[10] = biological target: Serine/threonine-protein kinase WNK2 (Homo sapiens) (UniProt Q9Y3S1); settings: Compound concentration 1000.0 nM
[11] = biological target: Serine/threonine-protein kinase 17B (Homo sapiens) (UniProt O94768); settings: Compound concentration 1000.0 nM
[12] = biological target: Mitogen-activated protein kinase kinase kinase 12 (Homo sapiens) (UniProt Q12852); settings: Compound concentration 1000.0 nM
[13] = biological target: Serine/threonine-protein kinase TAO2 (Homo sapiens) (UniProt Q9UL54); settings: Compound concentration 1000.0 nM
[14] = biological target: Serine/threonine-protein kinase SIK2 (Homo sapiens) (UniProt Q9H0K1); settings: Compound concentration 1000.0 nM
Serine/threonine-protein kinase SIK2 (Homo sapiens), sequence (Q9H0K1 whole entry, looked up): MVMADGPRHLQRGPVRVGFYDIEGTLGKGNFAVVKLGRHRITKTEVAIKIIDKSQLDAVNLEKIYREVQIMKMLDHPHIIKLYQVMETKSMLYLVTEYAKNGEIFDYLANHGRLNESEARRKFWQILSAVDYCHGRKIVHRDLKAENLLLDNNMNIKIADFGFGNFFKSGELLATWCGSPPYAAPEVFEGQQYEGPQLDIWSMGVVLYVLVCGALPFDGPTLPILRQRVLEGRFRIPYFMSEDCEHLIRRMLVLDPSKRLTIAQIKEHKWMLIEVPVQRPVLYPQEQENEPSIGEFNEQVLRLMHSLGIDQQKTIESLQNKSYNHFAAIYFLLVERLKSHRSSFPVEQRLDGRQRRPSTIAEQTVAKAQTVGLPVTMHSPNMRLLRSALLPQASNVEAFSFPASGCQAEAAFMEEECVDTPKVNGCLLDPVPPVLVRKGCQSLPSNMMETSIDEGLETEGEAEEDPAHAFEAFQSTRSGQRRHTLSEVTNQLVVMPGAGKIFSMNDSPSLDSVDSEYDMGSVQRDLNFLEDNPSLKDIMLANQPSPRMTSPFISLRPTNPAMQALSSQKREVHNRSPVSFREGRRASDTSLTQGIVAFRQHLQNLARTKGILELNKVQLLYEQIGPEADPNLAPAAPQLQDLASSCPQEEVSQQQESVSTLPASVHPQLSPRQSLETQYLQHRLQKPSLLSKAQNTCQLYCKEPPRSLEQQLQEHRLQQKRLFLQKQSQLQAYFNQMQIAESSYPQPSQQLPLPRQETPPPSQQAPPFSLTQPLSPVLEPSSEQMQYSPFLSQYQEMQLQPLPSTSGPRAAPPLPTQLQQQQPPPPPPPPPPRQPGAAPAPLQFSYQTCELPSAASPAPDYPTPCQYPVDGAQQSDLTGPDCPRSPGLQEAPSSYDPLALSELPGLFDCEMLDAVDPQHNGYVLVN

[15] = biological target: Tyrosine-protein kinase Lyn (Homo sapiens) (UniProt P07948); settings: Compound concentration 1000.0 nM
[16] = system: Phosphatidylinositol 4,5-bisphosphate 3-kinase catalytic subunit alpha isoform (Homo sapiens), P42336 [Q546K]; settings: Compound concentration 1000.0 nM
[17] = biological target: Tyrosine-protein kinase ABL2 (Homo sapiens) (UniProt P42684); settings: Compound concentration 1000.0 nM
[18] = biological target: Wee1-like protein kinase (Homo sapiens) (UniProt P30291); settings: Compound concentration 1000.0 nM
[19] = biological target: Alpha-1D adrenergic receptor (Homo sapiens) (UniProt P25100); settings: Compound concentration 10.0 uM
[20] = biological target: 5-hydroxytryptamine receptor 1B (Homo sapiens) (UniProt P28222); settings: Compound concentration 10.0 uM
5-hydroxytryptamine receptor 1B (Homo sapiens), sequence (P28222 whole entry): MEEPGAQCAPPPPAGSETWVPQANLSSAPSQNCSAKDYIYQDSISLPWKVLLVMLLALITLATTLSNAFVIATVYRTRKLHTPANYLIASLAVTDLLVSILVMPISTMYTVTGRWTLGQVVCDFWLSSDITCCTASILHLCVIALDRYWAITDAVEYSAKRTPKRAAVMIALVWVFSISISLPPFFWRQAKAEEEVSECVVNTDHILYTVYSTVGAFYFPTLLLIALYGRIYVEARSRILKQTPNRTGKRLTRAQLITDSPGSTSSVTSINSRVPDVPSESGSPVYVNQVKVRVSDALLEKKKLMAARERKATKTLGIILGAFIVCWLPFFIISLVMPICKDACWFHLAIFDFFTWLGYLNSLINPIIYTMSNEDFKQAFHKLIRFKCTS

[21] = biological target: Fibroblast growth factor receptor 2 (Homo sapiens) (UniProt P21802); settings: Compound concentration 1000.0 nM
[22] = biological target: Aurora kinase C (Homo sapiens) (UniProt Q9UQB9); settings: Compound concentration 1000.0 nM
Aurora kinase C (Homo sapiens), sequence (Q9UQB9 whole entry): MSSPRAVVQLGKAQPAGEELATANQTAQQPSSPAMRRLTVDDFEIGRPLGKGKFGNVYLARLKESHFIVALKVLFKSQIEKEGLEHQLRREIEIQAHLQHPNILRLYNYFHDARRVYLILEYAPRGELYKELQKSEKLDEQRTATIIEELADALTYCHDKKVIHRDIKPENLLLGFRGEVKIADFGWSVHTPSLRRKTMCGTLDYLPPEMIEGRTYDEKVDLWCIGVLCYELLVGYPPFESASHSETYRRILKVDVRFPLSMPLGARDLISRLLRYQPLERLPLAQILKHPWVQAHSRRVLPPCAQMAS

[23] = biological target: Cyclin-dependent kinase-like 5 (Homo sapiens) (UniProt O76039); settings: Compound concentration 1000.0 nM
[24] = biological target: Protein-tyrosine kinase 2-beta (Homo sapiens) (UniProt Q14289); settings: Compound concentration 1000.0 nM
[25] = biological target: Beta-1 adrenergic receptor (Homo sapiens) (UniProt P08588); settings: Compound concentration 10.0 uM
[26] = biological target: Ribosomal protein S6 kinase alpha-6 (Homo sapiens) (UniProt Q9UK32); settings: Compound concentration 1000.0 nM
[27] = biological target: Muscarinic acetylcholine receptor M5 (Homo sapiens) (UniProt P08912); settings: Compound concentration 10.0 uM
[28] = biological target: Activin receptor type-2B (Homo sapiens) (UniProt Q13705); settings: Compound concentration 1000.0 nM
[29] = biological target: Serine/threonine-protein kinase PLK3 (Homo sapiens) (UniProt Q9H4B4); settings: Compound concentration 1000.0 nM
Serine/threonine-protein kinase PLK3 (Homo sapiens), sequence (Q9H4B4 whole entry, looked up): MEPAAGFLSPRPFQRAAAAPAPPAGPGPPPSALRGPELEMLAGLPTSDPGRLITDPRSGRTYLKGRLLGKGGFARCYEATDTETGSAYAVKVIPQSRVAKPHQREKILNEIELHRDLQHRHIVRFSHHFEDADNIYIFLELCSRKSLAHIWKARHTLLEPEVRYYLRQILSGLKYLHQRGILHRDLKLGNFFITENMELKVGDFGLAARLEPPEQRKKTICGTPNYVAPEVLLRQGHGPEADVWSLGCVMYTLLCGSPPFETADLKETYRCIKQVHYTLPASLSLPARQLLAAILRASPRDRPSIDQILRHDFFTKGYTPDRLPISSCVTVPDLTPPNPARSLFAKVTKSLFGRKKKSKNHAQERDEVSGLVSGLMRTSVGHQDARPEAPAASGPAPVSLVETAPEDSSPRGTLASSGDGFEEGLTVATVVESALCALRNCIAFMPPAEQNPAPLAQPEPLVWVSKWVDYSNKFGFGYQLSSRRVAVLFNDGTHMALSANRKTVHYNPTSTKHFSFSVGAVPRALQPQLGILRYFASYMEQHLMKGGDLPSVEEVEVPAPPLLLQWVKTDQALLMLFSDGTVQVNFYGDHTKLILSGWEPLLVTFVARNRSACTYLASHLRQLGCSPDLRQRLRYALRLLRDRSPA

[30] = biological target: Mitogen-activated protein kinase 12 (Homo sapiens) (UniProt P53778); settings: Compound concentration 1000.0 nM
[31] = biological target: D(3) dopamine receptor (Homo sapiens) (UniProt P35462); settings: Compound concentration 10.0 uM
[32] = biological target: Bone morphogenetic protein receptor type-1A (Homo sapiens) (UniProt P36894); settings: Compound concentration 1000.0 nM
[33] = system: Receptor-type tyrosine-protein kinase FLT3 (Homo sapiens), P36888 [UNDEFINED MUTATION]; settings: Compound concentration 1000.0 nM
[34] = biological target: Serine/threonine-protein kinase RIO1 (Homo sapiens) (UniProt Q9BRS2); settings: Compound concentration 1000.0 nM
[35] = biological target: Phosphatidylinositol 4-phosphate 5-kinase type-1 alpha (Homo sapiens) (UniProt Q99755); settings: Compound concentration 1000.0 nM
[36] = biological target: Mitogen-activated protein kinase kinase kinase 14 (Homo sapiens) (UniProt Q99558); settings: Compound concentration 1000.0 nM
Mitogen-activated protein kinase kinase kinase 14 (Homo sapiens), sequence (Q99558 whole entry, looked up): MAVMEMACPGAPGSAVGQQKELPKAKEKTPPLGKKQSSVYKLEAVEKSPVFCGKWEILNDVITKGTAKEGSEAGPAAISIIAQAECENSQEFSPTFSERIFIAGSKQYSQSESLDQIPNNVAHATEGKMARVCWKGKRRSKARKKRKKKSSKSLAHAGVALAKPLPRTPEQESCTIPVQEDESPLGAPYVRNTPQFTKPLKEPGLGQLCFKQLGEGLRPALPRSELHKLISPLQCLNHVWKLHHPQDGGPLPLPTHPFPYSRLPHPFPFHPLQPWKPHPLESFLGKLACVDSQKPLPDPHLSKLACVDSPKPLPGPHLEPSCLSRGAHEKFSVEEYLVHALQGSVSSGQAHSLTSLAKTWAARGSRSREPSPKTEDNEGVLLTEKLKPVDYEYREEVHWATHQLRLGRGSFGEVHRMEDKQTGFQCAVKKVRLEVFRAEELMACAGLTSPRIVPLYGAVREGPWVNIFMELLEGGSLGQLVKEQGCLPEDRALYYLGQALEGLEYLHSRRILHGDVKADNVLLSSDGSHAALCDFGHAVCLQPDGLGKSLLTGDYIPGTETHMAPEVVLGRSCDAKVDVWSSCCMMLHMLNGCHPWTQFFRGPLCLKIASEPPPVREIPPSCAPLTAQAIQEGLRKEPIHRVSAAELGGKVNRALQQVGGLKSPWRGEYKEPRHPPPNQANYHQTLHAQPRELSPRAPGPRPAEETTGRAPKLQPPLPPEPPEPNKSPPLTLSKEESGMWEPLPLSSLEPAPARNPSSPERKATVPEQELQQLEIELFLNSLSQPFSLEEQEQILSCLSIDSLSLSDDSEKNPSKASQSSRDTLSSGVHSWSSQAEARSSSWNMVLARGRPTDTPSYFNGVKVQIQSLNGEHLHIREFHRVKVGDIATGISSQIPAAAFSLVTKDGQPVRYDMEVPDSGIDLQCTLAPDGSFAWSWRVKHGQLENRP

[37] = biological target: Serine/threonine-protein kinase mTOR (Homo sapiens) (UniProt P42345); settings: Compound concentration 1000.0 nM
[38] = biological target: Phosphatidylinositol 3-kinase C2 domain-containing subunit gamma (Homo sapiens) (UniProt O75747); settings: Compound concentration 1000.0 nM
[39] = biological target: Phosphatidylinositol 5-phosphate 4-kinase type-2 beta (Homo sapiens) (UniProt P78356); settings: Compound concentration 1000.0 nM
Phosphatidylinositol 5-phosphate 4-kinase type-2 beta (Homo sapiens), sequence (P78356 whole entry): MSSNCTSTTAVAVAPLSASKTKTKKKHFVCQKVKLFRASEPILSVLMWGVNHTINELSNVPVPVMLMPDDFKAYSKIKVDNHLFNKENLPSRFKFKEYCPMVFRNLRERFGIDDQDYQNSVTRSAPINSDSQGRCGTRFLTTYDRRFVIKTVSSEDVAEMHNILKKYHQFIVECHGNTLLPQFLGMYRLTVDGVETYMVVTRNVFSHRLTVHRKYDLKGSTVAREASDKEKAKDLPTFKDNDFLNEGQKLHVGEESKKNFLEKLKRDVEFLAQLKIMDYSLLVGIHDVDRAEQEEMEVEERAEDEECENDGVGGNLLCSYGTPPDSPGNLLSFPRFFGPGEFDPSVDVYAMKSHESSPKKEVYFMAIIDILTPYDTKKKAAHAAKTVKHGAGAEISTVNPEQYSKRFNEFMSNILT

[40] = biological target: Serine/threonine-protein kinase WNK1 (Homo sapiens) (UniProt Q9H4A3); settings: Compound concentration 1000.0 nM
[41] = system: Mast/stem cell growth factor receptor Kit (Homo sapiens), P10721 [L576P]; settings: Compound concentration 1000.0 nM
Mast/stem cell growth factor receptor Kit (Homo sapiens), P10721 [L576P], sequence (P10721 whole entry L576P): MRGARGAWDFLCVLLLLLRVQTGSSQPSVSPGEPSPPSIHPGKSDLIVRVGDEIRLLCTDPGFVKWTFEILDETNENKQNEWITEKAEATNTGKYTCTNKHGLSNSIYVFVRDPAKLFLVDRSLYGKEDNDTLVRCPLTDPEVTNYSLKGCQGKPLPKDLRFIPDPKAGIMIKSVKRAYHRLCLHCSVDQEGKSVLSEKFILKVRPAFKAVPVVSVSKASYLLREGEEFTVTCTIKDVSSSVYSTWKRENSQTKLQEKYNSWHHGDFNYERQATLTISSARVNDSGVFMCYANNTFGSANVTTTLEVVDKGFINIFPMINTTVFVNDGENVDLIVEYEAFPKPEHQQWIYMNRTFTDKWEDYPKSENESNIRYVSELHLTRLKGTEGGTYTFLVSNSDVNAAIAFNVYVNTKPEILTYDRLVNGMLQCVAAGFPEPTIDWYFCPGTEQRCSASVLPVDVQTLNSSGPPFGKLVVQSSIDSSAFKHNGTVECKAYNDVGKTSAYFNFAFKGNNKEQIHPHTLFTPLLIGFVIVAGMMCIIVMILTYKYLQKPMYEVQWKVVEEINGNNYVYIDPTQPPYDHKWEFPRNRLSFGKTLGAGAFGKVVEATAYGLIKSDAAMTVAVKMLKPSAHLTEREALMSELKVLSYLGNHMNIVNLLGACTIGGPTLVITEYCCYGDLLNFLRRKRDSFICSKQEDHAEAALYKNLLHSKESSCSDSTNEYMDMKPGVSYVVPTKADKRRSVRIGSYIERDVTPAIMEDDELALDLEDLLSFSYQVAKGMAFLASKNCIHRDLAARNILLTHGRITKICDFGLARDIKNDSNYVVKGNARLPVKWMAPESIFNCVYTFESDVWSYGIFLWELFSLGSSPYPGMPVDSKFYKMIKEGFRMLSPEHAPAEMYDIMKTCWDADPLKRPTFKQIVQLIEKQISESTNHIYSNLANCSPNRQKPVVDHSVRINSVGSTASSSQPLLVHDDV

[42] = biological target: Ribosomal protein S6 kinase alpha-2 (Homo sapiens) (UniProt Q15349); settings: Compound concentration 1000.0 nM
[43] = biological target: Cyclin-dependent kinase-like 2 (Homo sapiens) (UniProt Q92772); settings: Compound concentration 1000.0 nM
[44] = biological target: Mitogen-activated protein kinase kinase kinase 5 (Homo sapiens) (UniProt Q99683); settings: Compound concentration 1000.0 nM
[45] = biological target: Calcium/calmodulin-dependent protein kinase type 1 (Homo sapiens) (UniProt Q14012); settings: Compound concentration 1000.0 nM

Cc1nc(Cc2cccc(C(F)(F)F)c2)sc1-c1ccc(C(N)=O)nc1 [TP-024n]
inactive: residual activity [1] 100% | inhibition [2] 5.75% | residual activity [3] 72% | residual activity [4] 86% | inhibition [5] 2.07% | residual activity [6] 94% | residual activity [7] 69% | residual activity [8] 69% | residual activity [9] 93% | residual activity [10] 100% | residual activity [11] 79% | residual activity [12] 100% | residual activity [13] 86% | residual activity [14] 90% | residual activity [15] 95% | residual activity [16] 86% | residual activity [17] 100% | residual activity [18] 96% | inhibition [19] -5.68% | inhibition [20] 7.99% | residual activity [21] 100% | residual activity [22] 100% | residual activity [23] 100% | residual activity [24] 100% | inhibition [25] 7.56% | residual activity [26] 100% | inhibition [27] 11.2% | residual activity [28] 86% | residual activity [29] 94% | residual activity [30] 100% | inhibition [31] 6.21% | residual activity [32] 76% | residual activity [33] 100% | residual activity [34] 94% | residual activity [35] 100% | residual activity [36] 100% | residual activity [37] 87% | residual activity [38] 93% | residual activity [39] 88% | residual activity [40] 100% | residual activity [41] 89% | residual activity [42] 95% | residual activity [43] 92% | residual activity [44] 100% | residual activity [45] 86%

Cc1cc(-n2nc(Cc3cc(F)cc(C(F)(F)F)c3)nc2C)ccc1C(N)=O [TP-024]
inactive: residual activity [1] 100% | inhibition [2] 0.37% | residual activity [3] 87% | residual activity [4] 99% | inhibition [5] -1.39% | residual activity [6] 100% | residual activity [7] 83% | residual activity [8] 100% | residual activity [9] 95% | residual activity [10] 100% | residual activity [11] 81% | residual activity [12] 100% | residual activity [13] 91% | residual activity [14] 100% | residual activity [15] 100% | residual activity [16] 76% | residual activity [17] 100% | residual activity [18] 100% | inhibition [19] 3.15% | inhibition [20] 13.8% | residual activity [21] 100% | residual activity [22] 100% | residual activity [23] 100% | residual activity [24] 100% | inhibition [25] 11.8% | residual activity [26] 100% | inhibition [27] -2.07% | residual activity [28] 100% | residual activity [29] 100% | residual activity [30] 100% | inhibition [31] 3.4% | residual activity [32] 85% | residual activity [33] 100% | residual activity [34] 85% | residual activity [35] 100% | residual activity [36] 100% | residual activity [37] 78% | residual activity [38] 100% | residual activity [39] 100% | residual activity [40] 100% | residual activity [41] 52% | residual activity [42] 100% | residual activity [43] 100% | residual activity [44] 100% | residual activity [45] 90%
